Where a name gives a salt, the structure may show the parent alone. Where a SMILES comes first, the peptide text is derived from it. [ ]: non-standard residue; d: D form. Nle = CCCC[C@H](N)C(=O)O
Assays:
[1] = tested on: cancer cells having multidrug resistance; experiment: Induction of cell death in cancer / multidrug-resistant cancer cells (comparison compounds); format: cell-based; details: data omitted
Description: The specifically defined present piperazine derivatives having epoxy groups are believed to work through an epoxide group, but E-64 also contains an epoxide group. […] It is believed that not only epoxy group but also a piperazine ring are essential to induction of cell death in cancer. […] Other compounds having similar structures to the present piperazine derivatives, with respect to piperazine rings when present, and epoxy groups, have been tested (data omitted here), but no significant effect was observed, meaning that surprising and unexpected effects on induction of cell death in cancer, i.e., reversing mdr and in inducing death of cancer cells without significant toxicity to normal tissues, which appear to be pharmacologically beyond prevention of metastasis in cancer, are found in the specifically defined present compounds.

cells = experiment: Long-term assay (cell survival assay), toxicity to cells; format: cell-based; details: long-term assays (cell survival assay)
Experimental: Cell survival was assayed in cultured tumor cells. From 500-1000 cells per well were plated in 24-welled culture dishes and exposed to drug for seven days. After drug exposure, a computerized cell imaging technique was utilized to ascertain the number of viable cells remaining in each culture. From the data, survival curves were plotted and a ED50 (drug concentration that permits 50% cell survival) were calculated.

[2] = tested on: epidermoid carcinoma A431 cells; details: cited from earlier work
[3] = tested on: pancreatic cancer cell lines ASPC-1 and HS-766T; experiment: Cancer cell death assay (LDH release), pancreatic lines; format: cell-based, human; details: 25 μM, 24 hours
Experimental: (§1) Cell death was measured quantitatively by the release of a marker intracellular enzyme, lactate dehydrogenase (LDH), from damaged or killed cells. LDH released into the extracellular fluid, was measured 24 hours after drug exposure to cancer cells and the enzyme activity was determined by the method of Decker et al. (J. Immunolog Methods 15:61-99, 1988).
As described in Experiment 1, the cancer cell death assays were performed to measure anti-neoplastic activity of the compounds, NCO-700, TOP-001, TOP-003, TOP-005, TOP-006, TOP-008, TOP-009, TOP-010, TOP-012, TOP-013, TOP-015, and TOP-017.
The following cell lines were obtained from the American Type Tissue Culture Laboratory and cultured according to their specifications: Human pancreatic cancer cell lines ASPC-1 and HS-766T.
The results of the experiments are shown in FIG. 32, where a bar graph indicates the activity of a particular analog as measured by the % LDH release stimulated by each analog for 24 hours, with higher values of LDH released indicating greater anti-neoplastic activity (apoptosis). All analogs were tested at a concentration of 25 μM.

HS-578T (breast) = experiment: Cancer cell death assay (LDH release), HS-578T; format: cell-based, human; details: HS-578T, dose response (FIG. 7), alone
Experimental: 1. Cancer Cell Death Assay
as §1
A series of analogs related to NCO-700 were assayed in the cancer cell death assay. […] It should be stressed that these analogs were tested alone, without any added chemotherapeutic agent.
Based on Experiment 1 above, the anti-cancer activity of NCO-700, TOP-008, and analogs, TOP-201, 202, 203, 204, 205, 206, 207, and 007, was tested in cancer cell death assays of human cancer cell line HS-578T. In FIGS. 34 (1,000 cells/well) and 35 (1,500 cells/well), a bar graph indicates the activity of a particular analog as measured by the % LDH released (DMSO, dimethyl sulfoxide=control), with higher values of LDH released indicating greater anti-neoplastic activity. All analogs were tested at a concentration of 25 μM.

[4] = in vivo; cited from earlier work

For `CCCC[C@@H](C=O)NC(=O)[C@H](CC(C)C)NC(=O)[C@H](CC(C)C)NC(C)=O` [Calpain Inhibitor 1, N-acetyl-leu-leu-norleucinal] (Ac-Leu-Leu-[Nle]-aldehyde), the “effectiveness in cancer cells having multidrug resistance / induction of cell death” value [1] was “slightly effective”, the “toxicity to the cells” value (cells) was “toxic to the cells” and the “toxicity to the cells” value (cells; listed as Calpain inhibitor I) was “its toxicity may be an obstacle”.

In the case of `CCOC(=O)[C@H]1O[C@@H]1C(=O)N[C@@H](CC(C)C)C(=O)NCCC(C)C` [E-64-d], the cell cycle arrest ([2]; A431 cells, chemically defined medium) is given as “arrested at mitotic metaphase” and the “effect on growth of cancer cells” value ([2]; Shoji-Kasai et al.) is given as “slows the growth of cancer cells”.

For `CC(C)C[C@H](NC(=O)[C@H]1O[C@@H]1C(=O)O)C(=O)NCCCCN=C(N)N` [E-64], the “effectiveness in cancer cells having multidrug resistance / induction of cell death” value [1] was “not to be particularly effective in cancer cells having multidrug resistance”.

With `CC(C)C[C@H](NC(=O)[C@@H]1O[C@H]1C(=O)OCc1ccccc1)C(=O)N1CCN(C/C=C/c2ccccc2)CC1` [TOP-009, Bis[benzyl (2R,3R)-3-[(S)-3-methyl-1-[4-(3-phenyl-2-propenyl)piperazin-1-ylcarbonyl]butylcarbamoyl]oxirane-2-carboxylate] Sulfate] the “anti-neoplastic activity (% LDH release) compared with NCO-700” value [3] was “significantly greater activity than NCO-700 itself” and the “anti-neoplastic activity (LDH release) / potency compared to NCO-700” value (HS-578T (breast)) was “higher potency”.

For `CC(C)C[C@H](NC(=O)[C@@H]1O[C@H]1C(=O)Oc1ccccc1)C(=O)N1CCN(C/C=C/c2ccccc2)CC1` [TOP-013, Bis[phenyl (2R,3R)-3-[(S)-3-methyl-1-[4-(3-phenyl-2-propenyl)piperazin-1-ylcarbonyl]butylcarbamoyl]oxirane-2-carboxylate] Sulfate], the “anti-neoplastic activity (LDH release) / potency compared to NCO-700” value (HS-578T (breast)) was “higher potency”.

For `COc1cccc2c1C(=O)c1c(O)c3c(c(O)c1C2=O)C[C@@](O)(C(=O)CO)C[C@@H]3O[C@H]1C[C@H](N)[C@H](O)[C@H](C)O1` [adriamycin], the side effects [4] is listed as “inevitable side effects such as hair loss, weight loss, and liver and kidney damage”.

From patent US6054437A, “Method for inducing death of neoplastic cells using piperazine derivatives” (Hitachi Chemical Research Center, Inc., priority 1997, dated 2000)
